Patent US20060134131A1, “Cosmetic or pharmaceutical composition comprising a genus halopteris brown alga extract” (priority 2002, published 2006)
Like-named read-outs stand apart in the source and are kept apart here.

Test system: pre-adipocytes 3T3-L1
Assay: Differentiation of 3T3-L1 pre-adipocytes into adipocytes, lipid content by Oil Red colouring
Format: cell-based
Conditions: Mus musculus, 3T3-L1, retinoic acid 10 μM
Method: The study on the effect of this extract on a line of pre-adipocytes ET3-L1 induced as adipocytes is carried out according to a protocol which is known and which is in particular described in the document which appeared in Annu. Rev. Biochem., 1995, 64: 345-373, entitled “Transcriptional regulation of gene expression during adipocyte differentiation”, the authors of which were MacDougald O A and Lane M D.
This protocol is set out briefly below. The pre-adipocyte cells of the line e=3T3-L1 were kept in culture in a Dulbelcco modified Eagle medium (DMEM) containing 2 mM of glutamine, 4.5 g/l of glucose, 0.11 g/l of sodium pyruvate, 10% of calf serum (SVD) and antibiotics (50 U penicillin and 50 μg of streptomycin per ml of medium). Their differentiation as adipocytes was brought about in the following manner: firstly, the pre-adipocyte cells were cultivated with confluence for two days. At the time which will be referred to below as D0, the culture medium was replaced by a differentiation inducing medium (DIM) composed of DMEM containing 10% foetal calf serum (FCS) with the addition of 0.25 mM of isobutyl methyl xanthine (IBMX), 0.25 μM of dexamethasone and 1.74 μM of insulin. After two days of incubation, and therefore at time D2, the induction medium was delicately withdrawn and replaced by a new culture medium containing 10% of FCS and 0.174 μM of insulin. Next the culture medium was renewed every two days.
After seven days of culture, the lipid content of the pre-adipocyte cells was assessed by colouring with Oil Red. More precisely, the pre-adipocyte cells were fixed to 3.7% formaldehyde and then incubated for ten minutes with a Oil Red colorant solution (0.5% in an isopropanol/water mixture). After 10 minutes, the cellular carpet was rinsed with water and the pre-adipocyte cells were lysed with pure isopropanol. The optical density (OD) of the medium was measured at 540 nm.
The extract of the brown alga Halopteris scoparia was tested on 3T3-L1 cells during the induction phase by means of the DIM, which therefore commenced at day D0.
In the first experimental series, this extract was added from the very start of the differentiation (at time D0) and kept present in the medium until the cells were fixed (at time D7), by renewal every two days (that is to say at time D2 and D4). The extract was tested at the following three concentrations: 0.4%, 1% and 2.5%. In the same way, use was made of a sample of 10 μM retinoic acid, which is known for inhibiting the differentiation of pre-adipocytes into adipocytes, as is in particular described in the article which appeared in Differentiation, 1990, 45:119-127, entitled “The molecular basis for inhibition of adipose conversion of 3T3-L1 cells by retinoic acid”, the authors of which were Stone R L and Berlnohr D A. […]

CC1=C(/C=C/C(C)=C/C=C/C(C)=C/C(=O)O)C(C)(C)CCC1 [Retinoic Acid, retinoic acid]
inhibition at 10 µM (first experimental series, five manipulations, read-out: % inhibition of the differentiation): 82 ± 21%
inhibition at 10 µM (presence from D0 to D2, read-out: % inhibition of differentiation): 40 ± 5%
inhibition at 10 µM (presence from D0 to D7, second series, read-out: % inhibition of differentiation): 51 ± 3%
inhibition at 10 µM (presence from D2 to D7, read-out: % inhibition of differentiation): 3 ± 2%
